According to patent US20150344457A1, “METHODS OF INHIBITING PRMT5” (EPIZYME, INC., priority 2012, published 2015):
Read-outs that look alike come from different tables or passages of the source.

Legend:
[1] = tested on: Z-138 cells; assay: Z-138 Methylation Assay (In Cell Western for symmetric di-methyl arginine and DNA content); assay type: cell-based; details: Homo sapiens
Description: Z-138 suspension cells were purchased from ATCC (American Type Culture Collection, Manassas, Va.). RPMI/Glutamax medium, penicillin-streptomycin, heat inactivated fetal bovine serum, and D-PBS were purchased from Life Technologies, Grand Island, N.Y., USA. Odyssey blocking buffer, 800CW goat anti-rabbit IgG (H+L) antibody, and Licor Odyssey infrared scanner were purchased from Licor Biosciences, Lincoln, Nebr., USA. Symmetric di-methyl arginine antibody was purchased from EMD Millipore, Billerica, Mass., USA. 16% Paraformaldehyde was purchased from Electron Microscopy Sciences, Hatfield, Pa., USA.
Z-138 suspension cells were maintained in growth medium (RPMI 1640 supplemented with 10% v/v heat inactivated fetal bovine serum and 100 units/mL penicillin-streptomycin) and cultured at 37° C. under 5% CO2.
Cell Treatment, in Cell Western (ICW) for Detection of Symmetric Di-Methyl Arginine and DNA Content.
Z-138 cells were seeded in assay medium at a concentration of 50,000 cells per mL to a 384-well cell culture plate with 50 μL per well. Compound (100 nL) from 384 well source plates was added directly to 384 well cell plate. Plates were incubated at 37° C., 5% CO2 for 96 hours. After four days of incubation, 40 μL of cells from incubated plates were added to poly-D-lysine coated 384 well culture plates (BD Biosciences 356697). Plates were incubated at room temperature for 30 minutes then incubated at 37° C., 5% CO2 for 5 hours. After the incubation, 40 μL per well of 8% paraformaldehyde in PBS (16% paraformaldahyde was diluted to 8% in PBS) was added to each plate and incubated for 30 minutes. Plates were transferred to a Biotek 405 plate washer and washed 5 times with 100 μL per well of wash buffer (1×PBS with 0.1% Triton X-100 (v/v)). Next 30 μL per well of Odyssey blocking buffer were added to each plate and incubated 1 hour at room temperature. Blocking buffer was removed and 20 μL per well of primary antibody was added (symmetric di-methyl arginine diluted 1:100 in Odyssey buffer with 0.1% Tween 20 (v/v)) and plates were incubated overnight (16 hours) at 4° C. Plates were washed 5 times with 100 μL per well of wash buffer. Next 20 μL per well of secondary antibody was added (1:200 800CW goat anti-rabbit IgG (H+L) antibody, 1:1000 DRAQS (Biostatus limited) in Odyssey buffer with 0.1% Tween 20 (v/v)) and incubated for 1 hour at room temperature. The plates were washed 5 times with 100 μL per well wash buffer then 1 time with 100 μL per well of water. Plates were allowed to dry at room temperature then imaged on the Licor Odyssey machine which measures integrated intensity at 700 nm and 800 nm wavelengths. Both 700 and 800 channels were scanned.
First, the ratio for each well was determined by:
Each plate included fourteen control wells of DMSO only treatment (minimum inhibition) as well as fourteen control wells for maximum inhibition treated with 3 μM of a reference compound (Background wells). The average of the ratio values for each control type was calculated and used to determine the percent inhibition for each test well in the plate. Reference compound was serially diluted three-fold in DMSO for a total of nine test concentrations, beginning at 3 μM. Percent inhibition was determined and IC50 curves were generated using triplicate wells per concentration of compound.

[2] = target: T1, PRMT5/MEP50 (Homo sapiens, UniProt O14744); assay: PRMT5 Biochemical Assay (PRMT5/MEP50 enzyme assay on peptide substrate, 3H-SAM Flashplate); details: read-out: Biochemical IC50
T1 construct: Expressed full-length human Flag-PRMT5/6His-MeP50 protein complex was purified; made in house; host or cells: Spodoptera frugiperda (SF9) insect cells, baculovirus (pDEST8)

[3] = tested on: Z-138 cells; assay: Z-138 Proliferation Assay (Cell Titer Glo, 5 days); assay type: cell-based; details: Homo sapiens, Table D-2
Description: Z-138 Proliferation Assay
Z-138 suspension cells were purchased from ATCC (American Type Culture Collection, Manassas, Va.). RPMI/Glutamax medium, penicillin-streptomycin, heat inactivated fetal bovine serum were purchased from Life Technologies, Grand Island, N.Y., USA. V-bottom polypropylene 384-well plates were purchased from Greiner Bio-One, Monroe, N.C., USA. Cell culture 384-well white opaque plates were purchased from Perkin Elmer, Waltham, Mass., USA. Cell-Titer Gb® was purchased from Promega Corporation, Madison, Wis., USA. SpectraMax M5 plate reader was purchased from Molecular Devices LLC, Sunnyvale, Calif., USA.
Z-138 suspension cells were maintained in growth medium (RPMI 1640 supplemented with 10% v/v heat inactivated fetal bovine serum and cultured at 37° C. under 5% CO2. Under assay conditions, cells were incubated in assay medium (RPMI 1640 supplemented with 10% v/v heat inactivated fetal bovine serum and 100 units/mL penicillin-streptomycin) at 37° C. under 5% CO2.
For the assessment of the effect of compounds on the proliferation of the Z-138 cell line, exponentially growing cells were plated in 384-well white opaque plates at a density of 10,000 cells/ml in a final volume of 50 μl of assay medium. A compound source plate was prepared by performing triplicate nine-point 3-fold serial dilutions in DMSO, beginning at 10 mM (final top concentration of compound in the assay was 20 μM and the DMSO was 0.2%). A 100 nL aliquot from the compound stock plate was added to its respective well in the cell plate. […] After addition of compounds, assay plates were incubated for 5 days at 37° C., 5% CO2, relative humidity >90%.
Cell viability was measured by quantitation of ATP present in the cell cultures, adding 35 μl of Cell Titer Glo® reagent to the cell plates. Luminescence was read in the SpectraMax M5 microplate reader. The concentration of compound inhibiting cell viability by 50% was determined using a 4-parametric fit of the normalized dose response curves.

[4] = Table A-2, 96 hours, symmetric di-methyl arginine, read-out: ICW EC50
[5] = Table A-2, PRMT5/MEP50 4 nM, 3H-SAM 75 nM, peptide 40 nM

T1 sequence (O14744 with tags, fused parts or gaps): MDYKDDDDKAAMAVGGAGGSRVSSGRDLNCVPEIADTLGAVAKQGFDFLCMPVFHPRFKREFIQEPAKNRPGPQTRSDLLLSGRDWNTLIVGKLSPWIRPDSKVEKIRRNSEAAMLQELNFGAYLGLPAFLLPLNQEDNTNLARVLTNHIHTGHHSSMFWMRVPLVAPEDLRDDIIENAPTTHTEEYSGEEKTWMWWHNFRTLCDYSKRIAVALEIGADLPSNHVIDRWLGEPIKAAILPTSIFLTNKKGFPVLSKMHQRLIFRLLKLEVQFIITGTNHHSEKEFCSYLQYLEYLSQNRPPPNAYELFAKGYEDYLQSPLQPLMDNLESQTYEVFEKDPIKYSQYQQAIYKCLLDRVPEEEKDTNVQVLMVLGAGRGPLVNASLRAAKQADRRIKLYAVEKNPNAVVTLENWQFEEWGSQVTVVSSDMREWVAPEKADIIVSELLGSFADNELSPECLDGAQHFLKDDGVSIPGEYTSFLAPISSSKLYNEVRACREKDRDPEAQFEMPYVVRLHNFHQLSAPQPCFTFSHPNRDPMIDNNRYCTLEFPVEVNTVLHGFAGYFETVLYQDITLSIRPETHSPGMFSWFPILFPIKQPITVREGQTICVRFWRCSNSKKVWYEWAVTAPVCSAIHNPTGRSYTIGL
T1 sequence (Q9BQA1 with tags, fused parts or gaps partner limits assumed): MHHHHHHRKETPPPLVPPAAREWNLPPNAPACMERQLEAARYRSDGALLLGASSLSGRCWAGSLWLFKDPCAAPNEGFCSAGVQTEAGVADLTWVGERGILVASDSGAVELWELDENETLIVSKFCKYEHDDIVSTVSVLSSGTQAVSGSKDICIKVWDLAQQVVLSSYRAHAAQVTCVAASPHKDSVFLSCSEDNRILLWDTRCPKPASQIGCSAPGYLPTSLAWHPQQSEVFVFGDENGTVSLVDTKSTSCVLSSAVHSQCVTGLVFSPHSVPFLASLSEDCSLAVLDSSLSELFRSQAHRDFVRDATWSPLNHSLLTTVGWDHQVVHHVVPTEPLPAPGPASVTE

| SMILES | IC50 ([2]; Table D-2) | EC50 [3] | other results |
| --- | --- | --- | --- |
| O=C(COc1ccccc1N1CCOCC1)NC[C@@H](O)CN1CCc2ccccc2C1 [Compound A78] |  |  | EC50 [1, 4]: 0.101 to 1 µM; IC50 [2, 5]: 0.101 to 1 µM |
| OC(COc1cccc(-c2ccccc2F)c1)CN1CCc2ccccc2C1 (stereo not drawn) [Compound D154] | 0.101 to 1 µM |  | EC50 ([1]; Table D-2, read-out: ICW EC50): 1 to 10 µM |
| CN1CCN(c2ccccc2OCC(=O)NC[C@@H](O)CN2CCc3ccccc3C2)CC1 [Compound A85] |  |  | EC50 [1, 4]: 1 to 10 µM; IC50 [2, 5]: 1 to 10 µM |
| Cn1cc2ccc(-c3cccc(OCC(O)CN4CCc5ccccc5C4)c3)cc2n1 (stereo not drawn) [Compound D114] | 0.101 to 1 µM |  | EC50 ([1]; Table D-2, read-out: ICW EC50): > 20 µM |
| Cn1nccc1-c1cccc(CC(=O)NCC(O)CN2CCc3ccccc3C2)c1 (stereo not drawn) [Compound A54] |  |  | EC50 [1, 4]: 0.101 to 1 µM; IC50 [2, 5]: 0.101 to 1 µM |
| COc1cc(Cl)cc(-c2cccc(OCC(O)CN3CCc4ccccc4C3)c2)c1 (stereo not drawn) [Compound D110] | 0.101 to 1 µM |  | EC50 ([1]; Table D-2, read-out: ICW EC50): > 20 µM |
| CN(C)CCOc1ccccc1OCC(=O)NC[C@@H](O)CN1CCc2ccccc2C1 [Compound A89] |  |  | EC50 [1, 4]: 1 to 10 µM; IC50 [2, 5]: 0.101 to 1 µM |
| CC(C)n1nccc1-c1ccc(OCC(O)CN2CCc3ccccc3C2)cc1 (stereo not drawn) [Compound D26] | 10 to 40 µM | > 40 µM |  |
| CN1CCC(OCC(O)CN2CCc3ccccc3C2)C1 (stereo not drawn) [Compound D307] | > 40 µM | > 40 µM |  |
| OC(COc1ccc2c(c1)OCO2)CN1CCc2ccccc2C1 (stereo not drawn) [Compound D285] | 1 to 10 µM | > 20 µM |  |
| CN1CCC(OCC(O)CN2CCc3ccccc3C2)CC1 (stereo not drawn) [Compound D293] | > 40 µM | > 40 µM |  |
| OC(COC1CCNCC1)CN1CCc2ccccc2C1 (stereo not drawn) [Compound D298] | > 40 µM | > 40 µM |  |
| Cn1ccnc1-c1ccccc1OCC(=O)NCC(O)CN1CCc2ccccc2C1 (stereo not drawn) [Compound A138] |  |  | EC50 [1, 4]: 1 to 10 µM; IC50 [2, 5]: 0.101 to 1 µM |
| OC(COCC1CC1)CN1CCc2ccccc2C1 (stereo not drawn) [Compound D303] | 1 to 10 µM | > 40 µM |  |
| OC(COC1CCOCC1)CN1CCc2ccccc2C1 (stereo not drawn) [Compound D310] | 10 to 40 µM | > 40 µM |  |
| OC(COCC1CCCCO1)CN1CCc2ccccc2C1 (stereo not drawn) [Compound D304] | > 40 µM | > 40 µM |  |
| OC(COCc1ccccc1)CN1CCc2ccccc2C1 (stereo not drawn) [Compound D308] | 10 to 40 µM | > 40 µM |  |
| O=C(COc1ccccc1)NCC(O)CN1CCc2ccccc2C1 (stereo not drawn) [Compound A1] |  |  | EC50 [1, 4]: 0.101 to 1 µM; IC50 [2, 5]: 0.101 to 1 µM |
| OC(COCC1CCCO1)CN1CCc2ccccc2C1 (stereo not drawn) [Compound D305] | 10 to 40 µM | > 40 µM |  |
| OC(COCC1CCCCC1)CN1CCc2ccccc2C1 (stereo not drawn) [Compound D294] | 1 to 10 µM | > 40 µM |  |

| SMILES | IC50 ([2]; Table D-2) | EC50 [3] | other results |
| --- | --- | --- | --- |
| OC(COCC1COc2ccccc2O1)CN1CCc2ccccc2C1 (stereo not drawn) [Compound D300] | 0.101 to 1 µM | > 40 µM |  |
| O=C(COc1ccccc1S(=O)(=O)N1CCOCC1)NCC(O)CN1CCc2ccccc2C1 (stereo not drawn) [Compound A149] |  |  | EC50 [1, 4]: 0.101 to 1 µM; IC50 [2, 5]: < 0.1 µM |
| OC(COc1ccc(-n2cncn2)cc1)CN1CCc2ccccc2C1 (stereo not drawn) [Compound D9] | 1 to 10 µM | > 20 µM |  |
| OC(COc1ccc(C2CCNCC2)cc1)CN1CCc2ccccc2C1 (stereo not drawn) [Compound D25] | 1 to 10 µM | 10 to 40 µM |  |
| OC(COC1CCCNC1)CN1CCc2ccccc2C1 (stereo not drawn) [Compound D297] | > 40 µM | > 40 µM |  |
| CC(C)(C)OC(=O)N1CCC(OCC(O)CN2CCc3ccccc3C2)CC1 (stereo not drawn) [Compound D292] | 1 to 10 µM | > 40 µM |  |
| CCn1ccnc1COCC(O)CN1CCc2ccccc2C1 (stereo not drawn) [Compound D295] | > 40 µM | > 40 µM |  |
| CN(Cc1ccc(OCC(O)CN2CCc3ccccc3C2)cc1)C1CCCC1 (stereo not drawn) [Compound D24] | 1 to 10 µM | > 40 µM |  |
| N#CCc1cccc(-c2cccc(OCC(O)CN3CCc4ccccc4C3)c2)c1 (stereo not drawn) [Compound D111] | 0.101 to 1 µM |  | EC50 ([1]; Table D-2, read-out: ICW EC50): 1 to 10 µM |
| CN1CCCCC1COCC(O)CN1CCc2ccccc2C1 (stereo not drawn) [Compound D289] | > 40 µM | > 40 µM |  |
| CC(C)n1ccc(-c2ccc(OCC(O)CN3CCc4ccccc4C3)cc2)n1 (stereo not drawn) [Compound D27] | 1 to 10 µM | > 40 µM |  |
| CCC1c2ccccc2CCN1CC(O)COc1cccc(-c2ccc3ncn(C)c3c2)c1 (stereo not drawn) [Compound D179] | 0.101 to 1 µM | > 20 µM |  |
| COc1cc2c(cc1OC)CN(CC(O)COc1cccc(CNC3CCCC3)c1)CC2 (stereo not drawn) [Compound D30] | > 40 µM | 10 to 40 µM |  |
| Cn1cnc2ccc(NCC(=O)NCC(O)CN3CCc4ccccc4C3)cc21 (stereo not drawn) [Compound A69] |  |  | EC50 [1, 4]: 1 to 10 µM; IC50 [2, 5]: 0.101 to 1 µM |
| O=C(Nc1cccc(OCC(O)CN2CCc3ccccc3C2)c1)c1cccnn1 (stereo not drawn) [Compound D164] | 1 to 10 µM |  | EC50 ([1]; Table D-2, read-out: ICW EC50): 1 to 10 µM |
| O=C(NCC(O)CN1Cc2ccccc2C1)c1cccc(NC2CCOCC2)c1 (stereo not drawn) [Compound E8.] |  |  | EC50 ([1]; Table E-2, read-out: ICW EC50): 0.101 to 1 µM; IC50 ([2]; Table E-2): 0.101 to 1 µM |
| O=C(Cc1cccc2cccnc12)NCC(O)CN1CCc2ccccc2C1 (stereo not drawn) [Compound A60] |  |  | EC50 [1, 4]: 1 to 10 µM; IC50 [2, 5]: 0.101 to 1 µM |
| Cc1cn(C)c2cccc(OCC(=O)NCC(O)CN3CCc4ccccc4C3)c12 (stereo not drawn) [Compound A146] |  |  | EC50 [1, 4]: 0.101 to 1 µM; IC50 [2, 5]: < 0.1 µM |
| CC(OCC(O)CN1CCc2ccccc2C1)c1cccnc1 (stereo not drawn) [Compound D299] | 10 to 40 µM | > 40 µM |  |
